Assay results: ChEMBL document CHEMBL1641529, “Novel 9a,11-bridged azalides: One-pot synthesis of N'-substituted 2-imino-1,3-oxazolidines condensed to an azalide aglycone” (2011)
In brackets after ≈: the same amount, converted by molar mass.

Legend:
Moraxella catarrhalis = assay: Antimicrobial activity against Moraxella catarrhalis after 24 hrs by microdilution method; type: functional
Streptococcus pneumoniae = assay: Antimicrobial activity against Streptococcus pneumoniae after 24 hrs by microdilution method; type: functional
Streptococcus pyogenes = assay: Antimicrobial activity against Streptococcus pyogenes after 24 hrs by microdilution method; type: functional
Staphylococcus aureus = assay: Antimicrobial activity against Staphylococcus aureus after 24 hrs by microdilution method; type: functional
Haemophilus influenzae = assay: Antimicrobial activity against Haemophilus influenzae after 24 hrs by microdilution method; type: functional
Saccharomyces cerevisiae = assay: Toxicity in Saccharomyces cerevisiae after 24 hrs by microdilution method; type: functional, organism-based

SMILES | MIC (Moraxella catarrhalis) | MIC (Streptococcus pneumoniae) | MIC (Streptococcus pyogenes) | MIC (Staphylococcus aureus) | MIC (Haemophilus influenzae) | Activity (Saccharomyces cerevisiae)
CC[C@H]1OC(=O)[C@H](C)[C@@H](O[C@@H]2C[C@@](C)(OC)[C@@H](O)[C@H](C)O2)[C@H](C)[C@@H](O[C@@H]2O[C@H](C)C[C@H](N(C)C)[C@H]2O)[C@](C)(O)C[C@@H](C)CN2/C(=N\C(C)C)O[C@H]([C@H]2C)[C@]1(C)O | 16 µg/mL (≈ 19.9 µM) | 2 µg/mL (≈ 2.49 µM) | 2 µg/mL (≈ 2.49 µM) | 16 µg/mL (≈ 19.9 µM) | > 64 µg/mL | Not toxic
CC[C@H]1OC(=O)[C@H](C)[C@@]2(O)O[C@@](C)(C[C@@H](C)CN3/C(=N\Cc4ccccc4)O[C@H]([C@H]3C)[C@]1(C)O)[C@H](O[C@@H]1O[C@H](C)C[C@H](N(C)C)[C@H]1O)[C@H]2C | 32 µg/mL (≈ 46.4 µM) | 32 µg/mL (≈ 46.4 µM) | 32 µg/mL (≈ 46.4 µM) | > 64 µg/mL | > 64 µg/mL | Not toxic
CC[C@H]1OC(=O)[C@H](C)[C@@]2(O)O[C@@](C)(C[C@@H](C)CN3/C(=N\C(C)C)O[C@H]([C@H]3C)[C@]1(C)O)[C@H](O[C@@H]1O[C@H](C)C[C@H](N(C)C)[C@H]1O)[C@H]2C | 32 µg/mL (≈ 49.9 µM) | 16 µg/mL (≈ 24.9 µM) | 32 µg/mL (≈ 49.9 µM) | > 64 µg/mL | > 64 µg/mL | Not toxic
CC[C@H]1OC(=O)[C@H](C)[C@@H](O[C@@H]2C[C@@](C)(OC)[C@@H](O)[C@H](C)O2)[C@H](C)[C@@H](O[C@@H]2O[C@H](C)C[C@H](N(C)C)[C@H]2O)[C@](C)(O)C[C@@H](C)CN2/C(=N\c3ccc(-c4ccccc4)cc3OC)O[C@H]([C@H]2C)[C@]1(C)O | 8 µg/mL (≈ 8.49 µM) | < 0.125 µg/mL | < 0.125 µg/mL | 2 µg/mL (≈ 2.12 µM) | 8 µg/mL (≈ 8.49 µM) | Not toxic
CC[C@H]1OC(=O)[C@H](C)[C@@H](O[C@@H]2C[C@@](C)(OC)[C@@H](O)[C@H](C)O2)[C@H](C)[C@@H](O[C@@H]2O[C@H](C)C[C@H](N(C)C)[C@H]2O)[C@](C)(OC)C[C@@H](C)CN2/C(=N\C(C)C)O[C@H]([C@H]2C)[C@]1(C)O | 2 µg/mL (≈ 2.45 µM) | 0.5 µg/mL (≈ 0.613 µM) | 1 µg/mL (≈ 1.23 µM) | 16 µg/mL (≈ 19.6 µM) | 64 µg/mL (≈ 78.4 µM) | Not toxic
CC[C@H]1OC(=O)[C@H](C)[C@@H](O[C@@H]2C[C@@](C)(OC)[C@@H](O)[C@H](C)O2)[C@H](C)[C@@H](O[C@@H]2O[C@H](C)C[C@H](N(C)C)[C@H]2O)[C@](C)(OC)C[C@@H](C)CN2/C(=N\Cc3ccccc3)O[C@H]([C@H]2C)[C@]1(C)O | 2 µg/mL (≈ 2.31 µM) | < 0.125 µg/mL | < 0.125 µg/mL | 2 µg/mL (≈ 2.31 µM) | 16 µg/mL (≈ 18.5 µM) | Not toxic
CC[C@H]1OC(=O)[C@H](C)C(=O)[C@H](C)[C@@H](O[C@@H]2O[C@H](C)C[C@H](N(C)C)[C@H]2O)[C@](C)(OC)C[C@@H](C)CN2/C(=N\C(C)C)O[C@H]([C@H]2C)[C@]1(C)O | 16 µg/mL (≈ 24.4 µM) | 16 µg/mL (≈ 24.4 µM) | > 64 µg/mL | > 64 µg/mL | > 64 µg/mL | Not toxic
CC[C@H]1OC(=O)[C@H](C)[C@@H](O)[C@H](C)[C@@H](O[C@@H]2O[C@H](C)C[C@H](N(C)C)[C@H]2O)[C@](C)(OC)C[C@@H](C)CN2/C(=N\c3cccc4ccccc34)O[C@H]([C@H]2C)[C@]1(C)O | 16 µg/mL (≈ 21.6 µM) | 64 µg/mL (≈ 86.3 µM) | > 64 µg/mL | > 64 µg/mL | > 64 µg/mL | Not toxic
CC[C@H]1OC(=O)[C@H](C)[C@@H](O)[C@H](C)[C@@H](O[C@@H]2O[C@H](C)C[C@H](N(C)C)[C@H]2O)[C@](C)(O)C[C@@H](C)CN2/C(=N\c3cccc4ccccc34)O[C@H]([C@H]2C)[C@]1(C)O | 64 µg/mL (≈ 87.9 µM) | > 64 µg/mL | > 64 µg/mL | > 64 µg/mL | > 64 µg/mL | Not toxic
CC[C@H]1OC(=O)[C@H](C)[C@@H](O)[C@H](C)[C@@H](O[C@@H]2O[C@H](C)C[C@H](N(C)C)[C@H]2O)[C@](C)(O)C[C@@H](C)CN2/C(=N\c3ccc(-c4ccccc4)cc3OC)O[C@H]([C@H]2C)[C@]1(C)O | 32 µg/mL (≈ 40.8 µM) | > 64 µg/mL | > 64 µg/mL | > 64 µg/mL | > 64 µg/mL | Not toxic

Now from value to compound, other results behind:

MIC (Moraxella catarrhalis) | MIC (Streptococcus pneumoniae) | MIC (Streptococcus pyogenes) | MIC (Staphylococcus aureus) | MIC (Haemophilus influenzae) | SMILES | Activity (Saccharomyces cerevisiae)
64 µg/mL (≈ 92.5 µM) | 8 µg/mL (≈ 11.6 µM) | 8 µg/mL (≈ 11.6 µM) | 64 µg/mL (≈ 92.5 µM) | > 64 µg/mL | CC[C@H]1OC(=O)[C@H](C)[C@@H](O)[C@H](C)[C@@H](O[C@@H]2O[C@H](C)C[C@H](N(C)C)[C@H]2O)[C@](C)(O)C[C@@H](C)CN2/C(=N\Cc3ccccc3)O[C@H]([C@H]2C)[C@]1(C)O | Not toxic
8 µg/mL (≈ 8.89 µM) | 0.5 µg/mL (≈ 0.555 µM) | 1 µg/mL (≈ 1.11 µM) | 16 µg/mL (≈ 17.8 µM) | 32 µg/mL (≈ 35.5 µM) | CC[C@H]1OC(=O)[C@H](C)[C@@H](O[C@@H]2C[C@@](C)(OC)[C@@H](O)[C@H](C)O2)[C@H](C)[C@@H](O[C@@H]2O[C@H](C)C[C@H](N(C)C)[C@H]2O)[C@](C)(OC)C[C@@H](C)CN2/C(=N\c3cccc4ccccc34)O[C@H]([C@H]2C)[C@]1(C)O | Not toxic
8 µg/mL (≈ 11.4 µM) | 2 µg/mL (≈ 2.84 µM) | 8 µg/mL (≈ 11.4 µM) | > 64 µg/mL | > 64 µg/mL | CC[C@H]1OC(=O)[C@H](C)C(=O)[C@H](C)[C@@H](O[C@@H]2O[C@H](C)C[C@H](N(C)C)[C@H]2O)[C@](C)(OC)C[C@@H](C)CN2/C(=N\Cc3ccccc3)O[C@H]([C@H]2C)[C@]1(C)O | Not toxic
> 64 µg/mL | 32 µg/mL (≈ 45.3 µM) | 16 µg/mL (≈ 22.7 µM) | > 64 µg/mL | > 64 µg/mL | CC[C@H]1OC(=O)[C@H](C)[C@@H](O)[C@H](C)[C@@H](O[C@@H]2O[C@H](C)C[C@H](N(C)C)[C@H]2O)[C@](C)(OC)C[C@@H](C)CN2/C(=N\Cc3ccccc3)O[C@H]([C@H]2C)[C@]1(C)O | Not toxic
> 64 µg/mL | 4 µg/mL (≈ 6.21 µM) | 8 µg/mL (≈ 12.4 µM) | > 64 µg/mL | > 64 µg/mL | CC[C@H]1OC(=O)[C@H](C)[C@@H](O)[C@H](C)[C@@H](O[C@@H]2O[C@H](C)C[C@H](N(C)C)[C@H]2O)[C@](C)(O)C[C@@H](C)CN2/C(=N\C(C)C)O[C@H]([C@H]2C)[C@]1(C)O | Not toxic
4 µg/mL (≈ 4.51 µM) | < 0.125 µg/mL | 0.25 µg/mL (≈ 0.282 µM) | 8 µg/mL (≈ 9.03 µM) | 8 µg/mL (≈ 9.03 µM) | CC[C@H]1OC(=O)[C@H](C)[C@@H](O[C@@H]2C[C@@](C)(OC)[C@@H](O)[C@H](C)O2)[C@H](C)[C@@H](O[C@@H]2O[C@H](C)C[C@H](N(C)C)[C@H]2O)[C@](C)(O)C[C@@H](C)CN2/C(=N\c3cccc4ccccc34)O[C@H]([C@H]2C)[C@]1(C)O | Not toxic
2 µg/mL (≈ 2.35 µM) | < 0.125 µg/mL | < 0.125 µg/mL | 2 µg/mL (≈ 2.35 µM) | 16 µg/mL (≈ 18.8 µM) | CC[C@H]1OC(=O)[C@H](C)[C@@H](O[C@@H]2C[C@@](C)(OC)[C@@H](O)[C@H](C)O2)[C@H](C)[C@@H](O[C@@H]2O[C@H](C)C[C@H](N(C)C)[C@H]2O)[C@](C)(O)C[C@@H](C)CN2/C(=N\Cc3ccccc3)O[C@H]([C@H]2C)[C@]1(C)O | Not toxic
